{
  "source": "patent US6713048B2",
  "about": "“Δ9 tetrahydrocannabinol (Δ9 THC) solution metered dose inhalers and methods of use” (Virginia Commonwealth University, priority 1998, dated 2004)",
  "key": {"[1]": {"system": "Nausea and emesis due to Cancer chemotherapy", "details": "oral 5 or 15 mg/m^2 THC four times per day; 53 patients refractory to other antiemetics; cited from earlier work"}, "Glaucoma": {"system": "Glaucoma", "details": "oral 5, 10, 15 and 20 mg THC; 6 glaucoma patients; cited from earlier work"}, "[2]": {"system": "Spasticity and pain due to spinal cord injury", "details": "oral THC (5 mg) or codeine (50 mg); 1 patient; cited from earlier work"}, "intra ocular pressure": {"system": "intra ocular pressure", "details": "intravenous THC 0.022 or 0.044 mg/kg; ten subjects with normal intra ocular pressure; cited from earlier work"}, "[3]": {"assay": "Blood levels of Δ^9-THC by LC-MS", "details": "mouse, whole blood", "description": "Whether inhalation exposure to Δ^9 THC aerosol would elicit pharmacological effects indicative of cannabinoid activity in mice (Compton, D. R., Rice, K. C., De Costa, B. R., Rzdan, R. K., Melvin, L. S., Johnson, M. R., Martin, B. R., Cannabinoid structure-activity relationships: Correlation of receptor binding and in vivo activities, J Pharmacol Exp Ther, 265:218-226 (1993); Little et al., 1988) was determined.\nBlood and brain levels of Δ^9-THC were determined as follows. Extraction and LC-MS quantification of Δ^9-THC from whole blood and brain tissue were modified from Lichtman, A. H., Poklis, J. L., Wilson, D. M., Martin, B. R., The pharmacological activity of inhalation exposure to marijuana smoke in mice, Drug Alc Depend, 63:107-116 (2001). Particularly, THC and 2H^3-THC were extracted from brain material which contains a high degree of lipids. Acetonitrile was added to the pelletized solids and stored in a freezer overnight to separate the acetonitrile layer (which contained THC/2H^3-THC) from the aqueous layers. The following day the acetonitrile layer was removed. In the Lichtman et al., study, 2 ml of 9:1 NaOH was added and the sample was vortexed. Four ml of 9:1 hexane:ethyl acetate was added and the sample was vortexed and spun […] for 30 minutes. The vials were then centrifuged at 4,000 rpm […] for 10 minutes. The organic layer was removed and evaporated. Upon drying, a derivatizing agent was added and the sample was vortexed, and each sample analyzed by GC/MS. In the present experimentation, the acetonitrile was instead evaporated to dryness under nitrogen. The material was then resolubilized in 0.1 ml methanol. LC-MS identification was used to quantify Δ^9-THC/2H^3-THC in blood and brain matrices. […] Fifty ng of ^2H3-THC (Radian Corporation, Austin, Tex.) was added to the blood sample, brain homogenate, and calibrators as an internal standard. Following an equilibration period, 2.5 ml of cold acetonitrile (HPLC grade, Fisher Scientific, Raleigh, N.C.) was added drop-wise while vortexing. The samples were then centrifuged (Precision Vari-Hi-Speed Centricone, Precision Scientific Co., Chicago, Ill.) at 2500 rpm for 15 minutes to pelletize solids, then stored in the freezer (−20° C.) overnight, allowing the acetonitrile layer to separate from the aqueous layers. The acetonitrile layer was then removed and evaporated to dryness under nitrogen. The Δ^9-THC/^2H3-THC was then resolubilized in 0.1 ml methanol (HPLC grade, Fisher Scientific).\nLC-MS identification was used for quantification of Δ^9-THC and ^2H3-THC in blood and brain matrices using an 85:15 methanol: 1% glacial acetic acid (0.1% formic acid) mobile phase. A guard column was used inline with the standard reverse phase C18 column. The mass spectrometer was run in APCI+mode. Ions analyzed in single ion monitoring mode were 315 for Δ^9-THC and 318 for ^2H3-THC. A calibration curve was constructed for each assay based on linear regression using the peak-area ratios of Δ^9-THC to ^2H3-THC of the extracted calibration samples."}, "[4]": {"system": "Nausea and emesis due to Cancer chemotherapy", "details": "oral 10 mg/m^2 THC; refractory to other antiemetics; cited from earlier work"}, "[5]": {"system": "Nausea and emesis due to Cancer chemotherapy", "details": "oral THC 15 mg/m^2, cited from earlier work"}, "[6]": {"system": "Spasticity related to multiple sclerosis", "details": "13 patients, cited from earlier work"}, "[7]": {"system": "AIDS-associated anorexia and cachexia", "details": "oral 2.5 mg THC twice daily; 139 patients; 42 days; cited from earlier work"}, "[8]": {"system": "Nausea and emesis due to Cancer chemotherapy", "details": "oral 15 mg THC, 116 patients, cited from earlier work"}, "[9]": {"system": "Spasticity related to multiple sclerosis", "details": "5 or 10 mg THC; 9 patients; cited from earlier work"}, "[10]": {"system": "AIDS-associated anorexia and cachexia", "details": "oral 2.5 mg THC once or twice daily increasing to 20 mg daily; 94 patients; 12 months; cited from earlier work"}, "[11]": {"system": "Spasticity related to multiple sclerosis", "details": "oral 5 to 15 mg THC; 8 patients, single blind; cited from earlier work"}, "[12]": {"system": "Nausea and emesis due to Cancer chemotherapy", "details": "oral 10 mg/m^2 THC every 3 hours, 5 doses, 15 patients, cited from earlier work"}, "[13]": {"system": "Nausea and emesis due to Cancer chemotherapy", "details": "oral 10 mg/m^2 THC; 84 patients; cited from earlier work"}, "[14]": {"details": "10 mg prochloperzine or placebo"}},
  "note": "Where two headings read alike, the source gives them in different places.",
  "data": [
    {"smiles": "CCCCCc1cc(O)c2c(c1)OC(C)(C)[C@@H]1CCC(C)=C[C@@H]21", "note": "(relative stereo) [Δ^9 THC, (6aR-trans)-6a,7,8,10a-tetrahydro-6,6,9-trimethyl-3-pentyl-6H-dibenzo[b,d]-pyran-1-ol]", "values": [
      {"measurement": "patients with THC-induced partial or complete blockade of vomiting", "setting": "[1]", "value": "72% of patients exhibited a"},
      {"measurement": "appetite", "setting": "Glaucoma", "value": "appetite stimulation,"},
      {"measurement": "mood", "setting": "Glaucoma", "value": "elevated mood"},
      {"measurement": "pain", "setting": "Glaucoma", "value": "Pain relief"},
      {"measurement": "effect on spasticity", "setting": "[2]", "value": "THC had a beneficial effect"},
      {"measurement": "mean decrease of intra ocular pressure", "setting": "intra ocular pressure", "value": "presser by mean of 37%"},
      {"measurement": "concentration at 20 min", "setting": "[3]; inhaled, 20 actuations", "value": "409 ± 86", "unit": "ng/g"},
      {"measurement": "concentration at 20 min", "setting": "[3]; inhaled, 40 actuations", "value": "788 ± 273", "unit": "ng/g"},
      {"measurement": "concentration at 20 min", "setting": "[3]; inhaled, 60 actuations", "value": "1130 ± 240", "unit": "ng/g"},
      {"measurement": "concentration at 20 min", "setting": "[3]; iv, 1 mg/kg", "value": "102 ± 6", "unit": "ng/g"},
      {"measurement": "concentration at 20 min", "setting": "[3]; iv, 3 mg/kg", "value": "365 ± 39", "unit": "ng/g"},
      {"measurement": "concentration at 20 min", "setting": "[3]; iv, 10 mg/kg", "value": "1320 ± 38", "unit": "ng/g"},
      {"measurement": "courses resulting in a reduction of vomiting (of 20 courses of THC)", "setting": "[4]", "value": "resulted in no vomiting, 9"},
      {"measurement": "courses resulting in no decrease in vomiting (of 20 courses of THC)", "setting": "[4]", "value": "vomiting, 3 resulted in no"},
      {"measurement": "courses resulting in no vomiting (of 20 courses of THC)", "setting": "[4]", "value": "In 20 courses of THC, 5"},
      {"measurement": "patients with reduction in chemotherapy-induced nausea and vomiting", "setting": "[5]; 36 patients refractory to prochlorperazine or thiethylperazine", "value": "64% of patients given THC"},
      {"measurement": "side effects", "setting": "[5]; 36 patients", "value": "effects included dysphoria;"},
      {"measurement": "objective measurements of spasticity", "setting": "[6]; oral 2.5 to 15 mg THC once or twice daily", "value": "no significant improvement"},
      {"measurement": "subjective improvement in spasticity", "setting": "[6]; oral, at 7.5 mg THC and higher, once or twice daily", "value": "Significant subjective"},
      {"measurement": "appetite increase over baseline", "setting": "[7]", "value": "Appetite increased 38%"},
      {"measurement": "nausea", "setting": "[7]", "value": "THC also decreased"},
      {"measurement": "weight change between THC and placebo groups", "setting": "[7]", "value": "nausea. No significant"},
      {"measurement": "antiemetic effect compared with placebo", "setting": "[8]; [14]", "value": "each greater than placebo;"},
      {"measurement": "antiemetic effects, THC vs prochlorperazine", "setting": "[8]; [14]", "value": "Equal antiemetic effects"},
      {"measurement": "CNS side effects compared with prochlorperazine", "setting": "[8]; 10 mg prochloperzine", "value": "considerately more CNS"},
      {"measurement": "side effects", "setting": "[9]", "value": "treatment, minimal side"},
      {"measurement": "spasticity compared to placebo treatment", "setting": "[9]", "value": "Decrease in spasticity"},
      {"measurement": "appetite compared to controls", "setting": "[10]", "value": "improved appetite and only"},
      {"measurement": "weight compared to controls", "setting": "[10]", "value": "tended to increase weight"},
      {"measurement": "patients with both objective and subjective improvement", "setting": "[11]", "value": "tremor. 2 of 8 patients had"},
      {"measurement": "patients with mild subjective improvement in tremor", "setting": "[11]", "value": "5 of 8 patients had mild"},
      {"measurement": "patients with a fair response", "setting": "[12]", "value": "excellent response, 40%"},
      {"measurement": "plasma THC levels (mean + SD)", "setting": "[12]", "value": "THC levels 7.1 ± 6.9 (mean ng/ml"},
      {"measurement": "side effects", "setting": "[12]", "value": "tachycardia, few other side"},
      {"measurement": "patients with a reduction in nausea and vomiting", "setting": "[12]; THC (17 mg) laced cigarettes if vomiting occurred", "value": 93, "unit": "% patients had a"},
      {"measurement": "antiemetic efficacy compared with prochloperazine", "setting": "[13]", "value": "THC more effective than"}
    ]}
  ]
}
